In assay [1] the test system is HCT-8 (human colon adenocarcinoma) cells. As to the kind of experiment: in vitro activity against human colon adenocarcinoma (HCT-8), cell count. Type of assay: cell-based. As for the experimental part: HCT-8 (human colon adenocarcinoma) cells are trypsinized using Trypsin-EDTA. A single cell suspension is achieved by passing the cells through a 26 gauge needle with a 20 cc syringe. A cell suspension is prepared using RPMI 1640 growth medium (available from Gibco Laboratories) +10% fetal calf serum +50 µg/ml garamycin with a cell concentration of approximately 30,000 cells/ml. The cell suspension is dispensed in Linbro 24-well plates; 1 ml/well. The plates are incubated for approximately 48 hrs at 37°C in a 5% C02 atmosphere. At this time test compounds are added in the appropriate concentration. Five µl of the 200 µg/ml stock solution is added to each well in a primary test. Ten pl of the appropriate dilution is added to each well for a titration test. The plates are reincubated an additional 60-65 hrs at 37°C in a 5% C02 atmosphere. The test is read by lysing the cells using a mix of cationic surfactant, glacial acetic acid and sodium chloride. […] of the lysed cell suspension from each well is added to 8 ml of diluent. Each sample is read with a Coulter counter (ZBI model). The activity of each sample is measured as a percentage of the controls and the data is reported as ID50, that is the molar quantity of drug required to kill 50% of the tumor cells.

For another assay, the system named is Aerobacter aerogenes. As to the kind of experiment: agar plate paper-disc inhibition zone screening. Format: cell-based. As to conditions: Klebsiella aerogenes, read-out: Inhibition Zone Diameter mm (Dose mg/ml) A. Aerogenes; for zone of inhibition at 100 µg/mL: Dose 0.1 mg/ml; for zone of inhibition at 500 µg/mL: Dose 0.5 mg/ml. In a few lines:
(§1)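 Read-out: diameter (mm) of the inhibition zone around 12.7 mm paper discs after overnight (18-20 h) incubation at 37°C. Discs carried compound at 3,000-10 mcg/ml in alcohol, DMSO or DMF, final solvent <10%. Seeded agar trays used saline-suspended cells adjusted to 20-35% transmittancy.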

The subject of the next assay is Escherichia coli. As to the kind of experiment: agar plate paper-disc inhibition zone screening. Format: cell-based. The note with it: read-out: Inhibition Zone Diameter mm (Dose mg/ml) E. Coli; for zone of inhibition at 3000 µg/mL: Dose 3.0 mg/ml; for zone of inhibition at 1000 µg/mL: Dose 1.0 mg/ml; for zone of inhibition at 500 µg/mL: Dose 0.5 mg/ml. Summed up:
as §1

Another assay concerns Streptococcus faecalis. As to the kind of experiment: agar plate paper-disc inhibition zone screening. Type of assay: cell-based. The note with it: Enterococcus faecalis, read-out: Inhibition Zone Diameter mm (Dose mg/ml) S. Faecalis; for zone of inhibition at 1000 µg/mL: Dose 1.0 mg/ml; for zone of inhibition at 3000 µg/mL: Dose 3.0 mg/ml; for zone of inhibition at 500 µg/mL: Dose 0.5 mg/ml. Summed up: as §1

Another assay concerns Bacillus subtilis. As to the kind of experiment: agar plate paper-disc inhibition zone screening. The note with it: read-out: Inhibition Zone Diameter mm (Dose mg/ml) B. Subtilis; for zone of inhibition at 1000 µg/mL: Dose 1.0 mg/ml; for zone of inhibition at 100 µg/mL: Dose 0.1 mg/ml; for zone of inhibition at 500 µg/mL: Dose 0.5 mg/ml. Type of assay: cell-based. In a few lines: as §1

In another assay the test system is Penicillium avellaneum. As to the kind of experiment: agar plate paper-disc inhibition zone screening. Type of assay: cell-based. As to conditions: Hamigera avellanea, read-out: Inhibition Zone Diameter mm (Dose mg/ml) P. Avellaneum; for zone of inhibition at 3000 µg/mL: Dose 3.0 mg/ml; for zone of inhibition at 1000 µg/mL: Dose 1.0 mg/ml. In a few lines:
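Mycelia and spores from a six-day 28°C agar culture, suspended in saline with 0.05% Tween 80 at 20% transmittancy, were seeded into molten agar trays. Compounds at 3,000, 1,000, 500, 100 and 10 mcg/ml (solvent <10%) were applied on 12.7 mm paper discs. After at least 20-24 h incubation, inhibition zone diameter was measured in mm.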

Assay [2] has as its system lymphocytic leukemia P388. As to the kind of experiment: in vivo lymphocytic leukemia P388 test. Further details: species or system mice. The note with it: Mus musculus, P388, ip, 720 h, two single doses four days apart, read-out: T/C × 100 (Percent). In a few lines:
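Efficacy was judged from the treated/control survival-time ratio over 30 days (T/C×100 >125% as criterion). Mice (CD2F, 6–7/group) received i.p. P388 ascites cells, then compound i.p. at varied doses twice, four days apart.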

Where [3] appears, read: Homo sapiens, HCT-8 cells, 60-65 hrs with compound, molar quantity of drug required to kill 50% of the tumor cells, read-out: ID50 Molar.

Like-named read-outs stand apart in the source and are kept apart here.

Take `CCN(CC)CCCCNc1ccc2c3c(nn2CCN(CC)CC)-c2ccccc2C(=O)c13` [Example 7]: the IC50 in assay [1] (setting [3]) was 220 nM. Moreover, the zone of inhibition at 100 µg/mL in the assay with Aerobacter aerogenes amounted to 16 mm. Further, the zone of inhibition at 3000 µg/mL in the assay with Escherichia coli stood at 15 mm; with Penicillium avellaneum it was 14 mm. Besides, the zone of inhibition at 1000 µg/mL in the assay with Streptococcus faecalis was found to be 14 mm; with Bacillus subtilis, 17 mm.
In the case of `CCN(CC)CCCNc1ccc2c3c(nn2CCO)-c2ccccc2C(=O)c13` [Example 15, 5-[[3-(Diethylamino)propyl]amino]-2-(2-hydroxyethyl)anthra[1,9-cd]pyrazol-6(2H)-one], the IC50 in assay [1] (setting [3]) amounted to 480 nM. The zone of inhibition at 1000 µg/mL in the assay on Aerobacter aerogenes (Dose 1.0 mg/ml) was 15 mm; with Bacillus subtilis, 22 mm. The zone of inhibition at 3000 µg/mL with Escherichia coli was 0 mm; in the assay with Streptococcus faecalis, 14 mm; with Penicillium avellaneum it was 0 mm.
For `CCN(CC)CCNc1ccc2c3c(nn2CCO)-c2ccccc2C(=O)c13` [Example 13, 5-[[2-(Diethylamino]ethyl]amino]-2-(2-hydroxyethyl)anthra[1,9-cd]pyrazol-6(2H)-one], in assay [1] (setting [3]), the IC50 came out at 1800 nM. Besides, the zone of inhibition at 500 µg/mL in the assay with Aerobacter aerogenes came to 20 mm. Besides, the zone of inhibition at 1000 µg/mL was determined as 15 mm in the assay with Escherichia coli and 14 mm in the assay with Streptococcus faecalis. Also, in the assay with Bacillus subtilis, the zone of inhibition at 100 µg/mL came out at 15 mm. In addition, in the assay on Penicillium avellaneum, the zone of inhibition at 3000 µg/mL came out at 16 mm.
Consider `CCN(CC)CCNc1ccc2c3c(nn2C)-c2ccccc2C(=O)c13` [Example 10, 5-[[2-[Diethylamino)ethyl]amino]-2-methylanthra[1,9-cd]pyrazol-6(2H)-one], for which, in assay [1] (setting [3]), the IC50 came to 410 nM. The zone of inhibition at 500 µg/mL worked out at 17 mm in the assay on Aerobacter aerogenes and 16 mm with Penicillium avellaneum (Dose 0.5 mg/ml). The zone of inhibition at 3000 µg/mL with Escherichia coli was 15 mm. In addition, the zone of inhibition at 1000 µg/mL in the assay on Streptococcus faecalis was found to be 16 mm. Besides, the zone of inhibition at 100 µg/mL in the assay with Bacillus subtilis was 15 mm.
As for `CNc1ccc2c3c(nn2CCNCCO)-c2ccccc2C(=O)c13` [Example 26, 2-[2-[(2-Hydroxyethyl)amino]ethyl]-5-(methylamino)anthra[1,9-cd]pyrazol-6(2H)-one], in assay [1] (setting [3]), the IC50 worked out at 280 nM. For the same molecule, the zone of inhibition at 100 µg/mL in the assay on Aerobacter aerogenes was determined as 15 mm; in the assay on Bacillus subtilis it was 14 mm. The zone of inhibition at 500 µg/mL with Escherichia coli was 14 mm; with Streptococcus faecalis it was 15 mm. Also, the zone of inhibition at 3000 µg/mL in the assay with Penicillium avellaneum stood at 0 mm.
In the case of `CCN(CC)CCn1nc2c3c(cccc31)C(=O)c1c(NCCNCCO)cccc1-2` [Example 79, 2-[2-(Diethylamino)ethyl]-7-[[2-[(2-hydroxyethyl)amino]ethyl]amino]anthra[1,9-cd]pyrazol-6(2H)-one], in assay [1] (setting [3]), the IC50 stood at 93 nM. Also, the zone of inhibition at 500 µg/mL is 18 mm in the assay with Aerobacter aerogenes, 15 mm in the assay with Escherichia coli and 16 mm in the assay on Streptococcus faecalis. Also, the zone of inhibition at 100 µg/mL in the assay on Bacillus subtilis was found to be 20 mm. The zone of inhibition at 3000 µg/mL in the assay with Penicillium avellaneum is 15 mm.
With `CCN(CC)CCCNc1ccc2c3c(nn2CCN(CC)CC)-c2ccccc2C(=O)c13` [Example 5, 2-[2-(Diethylamino)ethyl]-5-[[3-(diethylamino)propyl]amino]anthra[1,9-cd]pyrazol-6(2H)-one], in assay [1] (setting [3]), the IC50 came to 180 nM. Besides, in the assay on Aerobacter aerogenes, the zone of inhibition at 100 µg/mL was determined as 20 mm. Moreover, the zone of inhibition at 3000 µg/mL in the assay with Escherichia coli and with Penicillium avellaneum was 15 mm throughout. Moreover, the results for the zone of inhibition at 1000 µg/mL in the assay with Streptococcus faecalis and in the assay with Bacillus subtilis were 14 mm and 25 mm, respectively.
For the molecule `Cn1nc2c3c(c(NCCNCCO)ccc31)C(=O)c1ccccc1-2` [Example 11, 5-[[2-[(2-Hydroxyethyl)amino]ethyl]amino]-2-methylanthra[1,9-cd]pyrazol-6(2H)-one], in assay [1] (setting [3]), the IC50 was 400 nM. In addition, the zone of inhibition at 500 µg/mL in the assay with Aerobacter aerogenes came to 17 mm. Further, the zone of inhibition at 1000 µg/mL in the assay with Escherichia coli and with Streptococcus faecalis was 14 mm each time. The zone of inhibition at 100 µg/mL in the assay with Bacillus subtilis is 14 mm. Besides, the zone of inhibition at 3000 µg/mL in the assay with Penicillium avellaneum was determined as 0 mm.
As to `CN(C)CCNCCNc1ccc2c3c(nn2CCN)-c2c(O)ccc(O)c2C(=O)c13` [Example 74, 2-[2-Aminoethyl)-5-[[2-[[2-(dimethylamino)ethyl]amino]ethyl]amino]-7,10-dihydroxyanthra[1,9-cd]pyrazol-6(2H)-one], the IC50 in assay [1] (HCT-8 human colon adenocarcinoma cells, 60-65 hrs incubation with compound, Coulter counter cell count as percentage of controls, read-out: ID50 (the source's name)) worked out at 1200 nM. For the same molecule, the zone of inhibition at 3000 µg/mL in the assay with Streptococcus faecalis was 0 mm; with Bacillus subtilis (Dose 3.0 mg/ml), 16 mm; in the assay with Penicillium avellaneum, 0 mm. For the same molecule, the response vs control in vivo at 12.5 mg/kg in assay [2] (P388, Dose 12.5 mg/kg intraperitoneally) was found to be 186%. Further, the response vs control in vivo at 25 mg/kg in assay [2] (P388, Dose 25 mg/kg intraperitoneally) is 192%. The response vs control in vivo at 50 mg/kg in assay [2] (P388, Dose 50 mg/kg intraperitoneally) is 220%.
For the molecule `CCN(CC)CCn1nc2c3c(c(NCCN)ccc31)C(=O)c1ccccc1-2` [Example 3, 5-[(2-Aminoethyl)amino]-2-[2-(diethylamino)ethyl]anthra[1,9-cd]pyrazol-6(2H)-one], the IC50 in assay [1] (setting [3]) was found to be 52 nM. The zone of inhibition at 500 µg/mL with Aerobacter aerogenes came out at 14 mm; in the assay on Streptococcus faecalis, 17 mm. In addition, in the assay with Escherichia coli, the zone of inhibition at 1000 µg/mL was determined as 14 mm. Besides, in the assay with Bacillus subtilis, the zone of inhibition at 100 µg/mL was 15 mm. For the same molecule, the zone of inhibition at 3000 µg/mL in the assay on Penicillium avellaneum amounted to 16 mm.
On to `CCN(CC)CCCCCCCNc1ccc2c3c(nn2CCN(CC)CC)-c2ccccc2C(=O)c13` [Example 6], for which the IC50 in assay [1] (setting [3]) stood at 2200 nM. The zone of inhibition at 3000 µg/mL in the assay with Aerobacter aerogenes (Dose 3.0 mg/ml) stood at 0 mm; in the assay with Streptococcus faecalis, 14 mm. The zone of inhibition at 1000 µg/mL in the assay on Escherichia coli and in the assay with Penicillium avellaneum was 14 mm each time. The zone of inhibition at 500 µg/mL in the assay on Bacillus subtilis was determined as 17 mm.
As for `O=C1c2ccccc2-c2n[nH]c3ccc(NCCNCCO)c1c23` [Example 19, 5-[[2-[(2-Hydroxyethyl)amino]ethyl]amino]anthra[1,9-cd]pyrazol-6-(2H)-one], in assay [1] (setting [3]), the IC50 was 1500 nM. The zone of inhibition at 500 µg/mL in the assay with Aerobacter aerogenes turned out to be 18 mm; in the assay on Bacillus subtilis, 19 mm. In addition, the zone of inhibition at 3000 µg/mL in the assay on Escherichia coli was 0 mm; in the assay on Streptococcus faecalis it was 17 mm; in the assay with Penicillium avellaneum, 0 mm.
With `CCN(CC)CCn1nc2c3c(c(NCCN4CCNCC4)ccc31)C(=O)c1ccccc1-2` [Example 9, 2-(2-(Diethylamino)ethyl]-5-[[2-(1-piperazinyl)ethyl]amino]anthra[1,9-cd]pyrazol-6(2H)-one], in assay [1] (setting [3]), the IC50 was 380 nM. The zone of inhibition at 100 µg/mL in the assay with Aerobacter aerogenes stood at 19 mm. Also, the figures for the zone of inhibition at 3000 µg/mL in the assay with Escherichia coli and in the assay on Streptococcus faecalis were 0 mm and 14 mm, respectively. For the same molecule, the values for the zone of inhibition at 1000 µg/mL in the assay on Bacillus subtilis and with Penicillium avellaneum were 24 mm and 0 mm, respectively.
